These results are taken from patent US20110112187A1, “Use Of Tranilast And Derivatives Thereof For The Therapy Of Neurological Conditions” (priority 2007, published 2011).

In the experiment the test system is neural stem cells. The experiment is described as follows: In vitro differentiation assay on adult neuronal stem cells (beta-III-tubulin promoter dual luciferase reporter). Conditions: 48 hrs; concentration ranges within 0.01 to 100 μM; versus sham treated cells. Type of experiment: cell-based, rat. From the text: The neuroregenerative effect of the compounds according to the present invention can be assayed in vitro by measuring their stimulation of the differentiation of neuronal stem cells. Therefore, adult neuronal stem cells have to be isolated and subsequently cultivated in a suitable culture medium. After several passages in vitro the stem cells have to be co-transfected with a DNA construct coding for two discriminable reporter proteins one of them under the control of a constitutive promoter and the other under the control of a beta-III-tubulin promoter. The beta-III-tubulin promoter is induced during the process of neuronal stem cell differentiation; therefore the reporter protein under the control of this promoter serves as a marker for the stem cell differentiation in such an in vitro dual reporter assay (Schneider et al., J Clin Investigation 2005; 115:2083-2098). The person skilled in the art knows several suitable constitutive promoters such as the SV40-promoter, the TK-promoter, or the CMV-promoter. As discriminable reporter proteins for such a dual reporter assay one can use discriminable luciferases such as firefly luciferase and Renilla luciferase. The transfected cells have to be incubated with the test compound and with positive and negative controls for normalization and background correction. As a positive control compound one can use retinoic acid (Guan et al., Cell Tissue Res. 2001; 305:171-176; Jacobs et al., Proc. Natl. Acad. Sci. USA 2006; 103:3902-3907), a suitable negative control is the sham treatment of the cells. The neroregenerative activity of the test compound is determined as the ratio of the signal of the beta-III-tubulin promoter controlled reporter versus the signal of the constitutively expressed reporter and is expressed as fold from the control. This assay is suitable to assess the neuroregenerative activity of tranilast and derivatives thereof, but also can be used to screen for other potential neuroregenerative compounds. Preferably, such a screening can be used to test compounds which are already known to be suitable as a medicament in terms of its toxicology, bioavailability, solubility, stability etc.
Neural stem cells were isolated from the subventricular zone of 4 week-old male Wistar rats as described (Maurer et al, Proteome Sci. 2003; 1:4). Cells were cultivated in Neurobasal medium (Invitrogen) supplemented with B27 (Invitrogen), 2 mM L-glutamine, 100 units/ml penicillin, 100 units/ml streptomycin, 20 ng/ml […] growth factor (EGF), 20 ng/ml fibroblast growth factor-2 (FGF-2), and […] heparin. Once a week the neural stem cells were passaged and experiments were performed after 4 weeks in vitro. For DNA transfection, the cells were dissociated and plated on poly-L-ornithin/laminin-coated 96-well plates at a density of 50.000 cells/well. Cotransfection with the pGL3-p-βIII-tubulin vector (100 ng/well) and the pRL SV40 vector (100 ng/well) was carried out according to the FuGene6 Transfection protocol (Roche). The pRL SV40 vector (Promega) served as an internal control vector.
To amplify the class III β-tubulin gene promoter (fragment −450-+54), rat genomic DNA was used as a template for PCR (Dennis et al., Gene 2002; 294:269-277). The amplified fragment was inserted into the Mlu I/Xho I site of the pGL3-Basic firefly luciferase reporter vector (Promega) to generate the pGL3-p-βIII-tubulin experimental vector.
After overnight incubation, the plate was decanted and given in 8-fold replicates fresh medium containing tranilast (Sigma) or vehicle. As a positive control for in vitro differentiation, stem cells were treated by adding 1 μM retinoic acid (Sigma) to the medium missing the mitogens.
After 48 hrs, the cells were harvested to prepare the cellular extracts for luciferase assay following the directions of the manufacturer (Promega). […]
On the technique in general: In a reporter assay the amount or activity of a reporter protein is the signal.

Structures are written as SMILES.

Regarding `COc1ccc(/C=C/C(=O)Nc2ccccc2C(=O)O)cc1OC` [tranilast, 2-((3-(3,4-dimethoxyphenyl)-1-oxo-2-propenyl)amino)benzoic acid], the “differentiation of neural stem cells to neurons (relative induction of the class III β-tubulin gene promoter controlled luciferase signal)” value is “significantly stimulates the differentiation of neural stem cells to neurons”.
